Results from patent publication US20230248670A1, “APPLICATION OF PREPARATION FOR INHIBITING CAMK2G EXPRESSION IN PREPARATION OF MEDICINE FOR TREATING PSORIASIS” (priority 2022, published 2023).

Assays:
[1] = test system: skin sympathetic nerves of IMQ-induced mice; assay: Local skin sympathectomy by intradermal 6-OHDA before IMQ treatment; assay type: in vivo, mouse
Method: In an embodiment of the disclosure, in order to observe the effect of local sympathectomy on psoriasis mice, mice are injected with 6-OHDA intradermally before IMQ treatment (FIG. 25).

[2] = test system: SH-SY5Y cells; assay: 6-OHDA induced SH-SY5Y cell injury (qPCR, western blot); assay type: cell-based, human
Description: In an embodiment of the disclosure, to further study whether CAMK2γ directly affects the expression of TH in sympathetic nerves, RNA interference (RNAi) method is used to knock down CAMK2G in human neuroblastoma cell (SH-SY5Y). SH-SY5Y is a poorly differentiated tumor cell with high similarity in morphology, physiology and biochemical function to dopaminergic neurons in real-time in vivo, and can constitutively express TH.

[3] = test system: IMQ-induced mice; conditions: intraperitoneal injection; cited from earlier work
[4] = test system: PMA-activated HL-60 cells; assay: NETs protein release in PMA-activated HL-60 cells; assay type: cell-based
Description: The existing literature discloses that although T cells producing IL-17 have long been the mainstream of psoriasis immunology research, neutrophils, as the largest number of cells in the innate immune system, have attracted much attention in the occurrence and development of psoriasis. Activated neutrophils produce enhanced respiratory burst, accompanied by the production of reactive oxygen species (ROS), ultimately leading to the development of NETosis. NETosis is a form of neutrophil death different from apoptosis and necrosis. NETosis is accompanied by the formation of NETs. NETs release proteases such as myeloperoxidase (MPO), neutrophil elastase (NE) and peptidyl arginine deiminase 4 (PAD4), which are involved in the hydrolysis and activation of inflammatory mediators and the formation of NETs of psoriasis autoantigens. HL60 is a bone marrow cell line with the potential to differentiate into neutrophils stimulated by dimethyl sulfoxide (DMSO). CAMK2γ is the member of CAMK family with the highest expression level and activity in HL-60 cells.
In the embodiment of the disclosure, in order to study whether CAMK2γ is involved in the formation of NETs in activated neutrophils, two kinds of CaMKII inhibitors, CaMKII-IN1 and KN93, are used.

[5] = test system: IMQ-induced psoriasis mice; assay: IMQ-induced psoriasis mouse model with subcutaneous injection of NE, SAL or ICI; assay type: in vivo; conditions: for activation of p38 in IMQ-induced skin: SAL or ICI treatment, mouse skin; for IMQ-induced psoriasis-like phenotype (dorsal skin thickness, erythema, scaling) / proportion of IL-17A+ γδ T cells (γδ T-17 cells) in mouse skin: subcutaneous injection; for IMQ-induced psoriasis-like phenotype (dorsal skin thickness, erythema, scaling): IMQ-induced mice, vs control group; for proportion of IL-17A+ γδ T cells (γδ T-17 cells) in mouse skin: IMQ-induced mouse skin, flow cytometry
Method: In the embodiment of the disclosure, establishment steps of IMQ-induced Camk2g^-/- psoriasis mouse model include steps as follows. 7-week-old wild type mice (WT) (n = 5) or Camk2g^-/- mice (n = 5) are taken to shave back hair, and the exposed skin area is 2 centimeters (cm) × 2 cm, […] (mg) of IMQ cream or control agent Vaseline (VAS) are evenly applied to the exposed skin of mice for 4 consecutive days, psoriasis area severity index (PASI) score is performed every day, and the mice are sacrificed on the 5th day to take the skin, spleen and blood for testing.
In the embodiment of the disclosure, the skin tissue is fixed with 10% formalin, embedded in paraffin, cut into 4 micrometers (µm) sections for hematoxylin and eosin (H&E) staining.
In the embodiment of the disclosure, the inflammation scoring method of the mouse model is an objective scoring system developed on the basis of clinical PASI score. Scores of erythema, scaling and thickening ranged from 0 to 4:0: none; 1: mild, 2: moderate, 3: obvious, and 4: very significant. The degree of erythema is scored using a scoring scaling based on erythema intensity. A cumulative score (i.e., erythema + scaling + thickening) can be used as an indicator of the severity of inflammation (the cumulative score is in a range of 0-12).
In the embodiment of the disclosure, separation steps of skin immunocytes include steps as follows. the skin is fully chopped and then digested in digestive enzymes at 37° C. and 225 revolutions per minute (rpm) for 1.5 hours to thereby obtain an initial digestion solution. The digestive enzymes are formulated as follows: 1.2 grams (g) bovine serum albumin (BSA) (Biofoxx, 4240GR100), 0.12 g type I collagenase (Sigma, C0130-5G), 0.06 g type IV collagenase (Worthington, LS004189) and 0.06 g hyaluronidase (Sigma, H3506) -5G) are dissolved in 30 milliliters (mL) dulbecco’s modified eagle medium (DMEM) (HyClone, SH30022.01). 150 microliters (µL) of 1 microgram per milliliter (mg/mL) deoxyribonuclease (DNase) (Yuanye, S10073) is added in the initial digestion solution and the digestion is continued for 30 minutes to obtain a first cell suspension. After the digestion, the first cell suspension is filtered through a 70-µm filter. The filtered first cell suspension is centrifuged at 4° C. and 2000 rpm for 8 minutes, and first cell particles are collected after removing a first supernatant. The first cell particles are suspended in 6 mL of 40% lymphocyte isolation solution (5.4 mL Percoll (GE Healthcare, 17-0891-09) +520 µL Hank’s Solution (Beyotime, C0219) +44 µL 2×Hepes Buffer (Solarbio, H1080-100) +[…] phosphate-buffered saline (PBS)) of a centrifuge tube. Then, 6 mL of 80% lymphocyte isolation solution (5.4 mL Percoll+520 µL Hank’s Solution+44 µL 2×Hepes Buffer+1.491 mL PBS) is slowly added to the tube wall to obtain a first mixed solution, and the first mixed solution is clearly separated into two layers. The first mixed solution is centrifuged at 4° C. and 2000 rpm for 20 minutes, and the centrifugal lifting force is kept to a minimum. The liquid in the centrifuge tube after centrifugation can be divided into four layers. From top to bottom of the centrifuge tube, there are 40% lymphocyte isolation solution, lymphocytes, 80% lymphocyte isolation solution and cell fragments. Lymphocytes are carefully transferred into a new centrifuge tube and thoroughly washed with 10 mL PBS to obtain a second mixed solution. The second mixed solution is centrifuged at 4° C. and 2000 rpm for 8 minutes to obtain a second cell suspension, and second cell particles are collected after removing a second supernatant. Then, 1 µL of each cell membrane surface antibody is added to 50 µL of PBS, mixed with the second cell particles, and incubated at room temperature for 30 minutes in the dark. […]

[6] = test system: Jurkat cells; assay: Proinflammatory cytokine production in PMA/ionomycin co-stimulated Jurkat cells; assay type: cell-based, human; conditions: co-stimulation with PMA and ionomycin
Description: In the embodiments of the disclosure, “Phorbol 12-myristate 13-acetate (PMA)” and “ionomycin (Ion)” are used to activate Jurkat cells, and only activated Jurkat cells can highly express inflammatory factors.
In the embodiment of the disclosure, in order to in order to study how ADRB2 regulates the inflammatory response of γδ T cells, Jurkat cells (a kind of immortal human T lymphocytes) are stimulated with ADRB2 agonist SAL and antagonist ICI 118551 respectively.

[7] = test system: Jurkat T cells; assay: MAPK (p38, ERK, JNK) activation in PMA/ionomycin activated Jurkat T cells; assay type: cell-based, human; conditions: Jurkat T cells activated by PMA/ionomycin for 2 hours, treatment for 4 hours
Description: This is consistent with the existing literature that p38 phosphorylation promotes the proliferation of Th17 cells in autoimmune arthritis. P38 MAPK signaling pathway plays a role in the activation and differentiation of T cells in the peripheral blood immune system.

[8] = test system: IMQ-induced psoriasis mice; assay: IMQ-induced psoriasis mouse model with subcutaneous injection of NE, SAL or ICI; assay type: in vivo; conditions: after injection of NE
[9] = test system: γδ T cell deficient-mice (Tcrd^-/-); assay: SAL subcutaneous injection in γδ T cell deficient-mice (Tcrd-/-); assay type: in vivo, mouse
Description: SAL has no effect on the ability of αβ T cells to produce IL-17 (FIG. 50). Combined with the previous results, NE in the skin mainly derives from the skin sympathetic nerves and mediates the release of IL-17 from γδ T cells instead of αβ T cells through the NE-ADRB2 signaling pathway.

[10] = intradermal 6-OHDA, sympathetic denervated skin

Compound: NCCc1cc(O)c(O)cc1O [6-OHDA, 6-hydroxydopamine]
- TH and pTH in skin ([1]; intradermal 6-OHDA before IMQ, immunofluorescence and western blot): significant reduction of TH and pTH
- IMQ-induced psoriasis-like phenotype ([1]; intradermal 6-OHDA, skin sympathetic denervation): reduces IMQ-induced psoriasis-like phenotype in mice
- IL-17A+ γδ T cells in skin [1, 10]: IL-17A+ γδ T cells are reduced
- NE in skin [1, 10]: reduction of NE
- CAMK2G expression ([2]; qPCR): no significant effect on CAMK2G expression
- intracellular TH transcription level ([2]; qPCR): decrease of intracellular TH transcription level
- phosphorylation levels of other members of the CaMKII family ([2]; western blot): may lead to increased phosphorylation levels of other members of the CaMKII family
- total protein level and pTH level of CAMK2γ ([2]; western blot): reduces the total protein level and pTH level of CAMK2γ
- IMQ-induced ear swelling [3]: can reduce IMQ-induced ear swelling
- production of IL-17 [3]: does not affect the production of IL-17

Compound: Cc1c(Cl)cccc1S(=O)(=O)Nc1nc(NCCc2ccccc2)nc2c1CN(Cc1ccccc1)CC2 [CaMKII-IN1]
- release of MPO, elastase and PAD4 [4]: inhibits the release of MPO, elastase and PAD4

Compound: Cc1ccc(OCC(O)C(C)NC(C)C)c2c1CCC2 (stereo not drawn) [ICI, ICI 118551]
- activation of p38 in IMQ-induced skin [5]: showed inhibitory effect
- IMQ-induced psoriasis-like phenotype (dorsal skin thickness, erythema, scaling) [5]: psoriasis phenotype of mice injected with ICI is reduced
- proportion of IL-17A+ γδ T cells (γδ T-17 cells) in mouse skin [5]: reduces a proportion of skin γδ T-17 cells
- production of T-cell proinflammatory cytokines IL-17A, TNF-α and IL-22 [6]: reduces the production of the T-cell proinflammatory cytokines
- activation of ERK and JNK [7]: does not affect the activation
- p38 phosphorylation [7]: inhibited

Compound: CC(C)Cn1cnc2c(N)nc3ccccc3c21 [IMQ, imiquimod]
- p38 phosphorylation in mouse skin ([5]; IMQ treatment): p38 phosphorylation is activated by IMQ
- proportion of β2-AR+ T cells in mouse skin ([5]; IMQ treatment): increases a proportion of β2-AR+ T cells in mouse skin
- TH phosphorylation in mouse skin ([5]; IMQ treatment, western blot): significant upregulation of TH phosphorylation

Compound: COc1ccc(S(=O)(=O)N(CCO)c2ccccc2CN(C)C/C=C/c2ccc(Cl)cc2)cc1 [KN93]
- release of MPO, elastase and PAD4 [4]: inhibits the release of MPO, elastase and PAD4

Compound: NC[C@H](O)c1ccc(O)c(O)c1 [NE, norepinephrine]
- IL-17A+ γδ T cells in CAMK2G-deleted mice ([5]; NE administration, IMQ-induced Camk2g-/- mice): counteracts the decrease of IL-17A+ γδ T cells caused by CAMK2G deletion
- p38 phosphorylation in skin of Camk2g-/- mice ([5]; NE injection, compared to IMQ-treated WT mice): increases and restores p38 phosphorylation
- IMQ-induced psoriasis-like phenotype (dorsal skin thickness, erythema, scaling) [5]: aggravates the IMQ-induced psoriasis-like phenotype
- proportion of IL-17A+ γδ T cells (γδ T-17 cells) in mouse skin [5]: increases a proportion of IL-17A+ γδ T cells in mouse skin
- difference in skin thickness between WT and Camk2g-/- mice [8]: disappeared

Compound: OCc1cc(C(O)CNCCCCCCOCCCCc2ccccc2)ccc1O (stereo not drawn) [SAL, salmeterol xinafoate]
- activation of p38 in IMQ-induced skin [5]: enhanced the activation of p38
- IMQ-induced psoriasis-like phenotype (dorsal skin thickness, erythema, scaling) [5]: psoriasis phenotype of mice injected with SAL increased
- proportion of IL-17A+ γδ T cells (γδ T-17 cells) in mouse skin [5]: promotes IL-17A production by γδ T cells
- ability of αβ T cells to produce IL-17 [9]: no effect
- psoriasis phenotype and inflammatory infiltration [9]: promotion of psoriasis phenotype and inflammatory infiltration by SAL is counteracted by the lack of γδ T cells
- production of T-cell proinflammatory cytokines IL-17A, TNF-α and IL-22 [6]: increase the production of T-cell proinflammatory cytokines IL-17A, TNF-α and IL-22
- p38 phosphorylation [7]: significantly increased
